# Test results published in patent EP1501514B1, “PROTEIN KINASE MODULATORS AND METHODS OF USE” (Exelixis, Inc., priority 2002, dated 2003).
# Molecular target: T1, Chk1 (Homo sapiens, UniProt O14757)
# T1 construct: purchased Upstate Biotechnology
# T1 sequence (O14757 1-476): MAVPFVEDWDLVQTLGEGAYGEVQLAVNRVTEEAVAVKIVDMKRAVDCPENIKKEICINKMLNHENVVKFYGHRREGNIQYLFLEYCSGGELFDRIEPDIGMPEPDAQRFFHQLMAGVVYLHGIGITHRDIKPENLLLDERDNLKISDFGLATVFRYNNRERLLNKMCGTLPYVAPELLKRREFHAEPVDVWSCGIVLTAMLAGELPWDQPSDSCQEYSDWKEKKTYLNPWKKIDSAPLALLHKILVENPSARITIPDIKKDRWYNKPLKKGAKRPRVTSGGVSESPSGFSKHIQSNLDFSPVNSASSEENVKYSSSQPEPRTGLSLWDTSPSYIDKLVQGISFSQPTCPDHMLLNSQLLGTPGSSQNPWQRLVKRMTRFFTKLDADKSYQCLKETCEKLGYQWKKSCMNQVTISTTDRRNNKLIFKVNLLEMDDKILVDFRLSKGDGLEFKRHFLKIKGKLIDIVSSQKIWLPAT
# Experiment: Chk1 assay: incorporation of γ-33P ATP into immobilized myelin basic protein
# Type: biochemical
# Conditions: Table 11; Chk1 only
# Description: Chk1 and Chk2 assays were performed by measuring incorporation of γ-^33P ATP into immobilized myelin basic protein (MBP). High binding white 384 well plates (Greiner) were coated with MBP (Sigma #M-1891) by incubation of 60ul/well of 20µg/ml MBP in Tris-buffered saline (TBS; 50mM Tris pH 8.0, 138mM NaCl, 2.7mM KCl) for 24 hours at 4° C. Plates were washed 3X with 100µl TBS. Kinase reactions were carried out in a total volume of 34µl in kinase buffer (5mM Hepes pH 7.6, 15mM NaCl, 0.01% bovine gamma globulin (Sigma #I-5506), 10mM MgCl2, 1mM DTT, 0.02% TritonX-100). Compound dilutions were performed in DMSO and added to assay wells to a final DMSO concentration of 1%. Each data point was measured in duplicate, and at least two duplicate assays were performed for each individual compound determination. Chkl and Chk2 enzymes (Upstate Biotechnology) were added to final concentrations of 10nM (Chkl) or 20nM (Chk2). A mixture of unlabeled ATP and γ-^33P ATP was added to start the reaction (2x10^6 cpm of γ-^33P ATP per well (3000Ci/mmole) and either 10µM or 30µM unlabeled ATP (for Chkl and Chk2 assays respectively). The reaction was carried out for 1 hour at room temperature with shaking. Plates were washed 7x with TBS, followed by the addition of 50µl/well scintillation fluid (Wallac). Plates were read using a Wallac Trilux counter. This is only one format of such assays, various other formats are possible, as known to those skilled in the art.
# The above assay procedure can be used to determine the IC50 for inhibition and/or the inhibition constant Ki. The IC50 is defined as the concentration of compound required to reduce the enzyme activity by 50% under the conditions of the assay. […] The Ki for a compound may be determined from the IC50 based on three assumptions. First, only one compound molecule binds to the enzyme and there is no cooperativity. […] Third, the enzymatic rate of the enzyme-inhibitor complex is zero. The rate (i.e., compound concentration) data are fitted to the equation: V = Vmax E0 [I-((E0+I0+Kd)-sqrt(((E0+I0+Kd))^2 -4E0 I0))/(2E0)] [formula]
row,IC50 [µM],SMILES
1,0.05 to 1,"NC(=O)c1nc(-c2cccc(-c3ccccc3)c2)cnc1N [compound 41, 3-amino-6-biphenyl-3-ylpyrazine-2-carboxamide]"
2,> 10,"Nc1ncc(-c2ccccc2)nc1C(=O)NC1CCCC1 [compound 8, 3-amino-N-cyclopentyl-6-phenylpyrazine-2-carboxamide]"
3,1 to 10,"Cc1cccc(-c2cnc(N)c(C(N)=O)n2)c1 [compound 33, 3-amino-6-(3-methylphenyl)pyrazine-2-carboxamide]"
4,> 10,"CCCNC(=O)c1nc(-c2ccccc2)cnc1NCCC [compound 15, 6-phenyl-N-propyl-3-(propylamino)pyrazine-2-carboxamide]"
5,> 10,"NC(=O)c1nc(-c2ccc(-c3ccccc3)cc2)cnc1N [compound 31, 3-amino-6-biphenyl-4-ylpyrazine-2-carboxamide]"
6,1 to 10,"CNC(=O)c1nc(-c2ccc(OC)cc2)cnc1N [compound 54, 3-amino-N-methyl-6-[4-(methyloxy)phenyl]pyrazine-2-carboxamide]"
7,1 to 10,"COCCNC(=O)c1nc(-c2ccccc2)cnc1N [compound 46, 3-amino-N-[2-(methyloxy)ethyl]-6-phenylpyrazine-2-carboxamide]"
8,0.05 to 1,"CNC(=O)c1nc(-c2cccc(-c3ccccc3)c2)cnc1N [compound 55, 3-amino-6-biphenyl-3-yl-N-methylpyrazine-2-carboxamide]"
9,0.05 to 1,"CNC(=O)c1nc(-c2cccc(C(=O)NCc3ccc(C(C)(C)C)cc3)c2)cnc1N [compound 353, 3-amino-6-{3-[({[4-(1,1-dimethylethyl)phenyl]methyl}amino)carbonyl]phenyl}-N-methylpyrazine-2-carboxamide]"
10,> 10,"NC(=O)c1nc(-c2ccc3c(c2)OCO3)cnc1N [compound 25, 3-amino-6-(1,3-benzodioxol-5-yl)pyrazine-2-carboxamide]"
11,> 10,"CNC(=O)c1nc(-c2noc(C3CCCCC3)n2)cnc1N [compound 68, 3-amino-6-(5-cyclohexyl-1,2,4-oxadiazol-3-yl)-N-methylpyrazine-2-carboxamide]"
12,1 to 10,"CNC(=O)c1nc(-c2cccc(OCc3ccccc3)c2)cnc1N [compound 44, 3-amino-N-methyl-6-{3-[(phenylmethyl)oxy]phenyl}pyrazine-2-carboxamide]"

row,SMILES,IC50 [µM]
1,"Nc1ncc(-c2ccccc2)nc1C(=O)NCC1CCCO1 (stereo not shown) [compound 13, 3-amino-6-phenyl-N-(tetrahydrofuran-2-ylmethyl)pyrazine-2-carboxamide]",> 10
